Measured values published in patent US5122448A, “Assay of anti-Epstein-Barr virus nuclear antigen antibodies with synthetic polypeptides” (Scripps Clinic and Research Foundation, priority 1990, dated 1992).
Where two headings read alike, the source gives them in different places. Residues, ends and D or L forms follow the SMILES beside them.

What was measured:
[1] = tested on: antibodies to EBNA-1 and autoantigens; conditions: cited from earlier work
anti-EBNA antibodies = assay: ELISA with polypeptide as solid phase antigen, anti-polypeptide activity of sera (OD405); type: binding, human; conditions: for OD405 × 10^3 obtained with Patient Antibodies to peptide: serum 1:20
Method: (§1) Briefly, microtiter wells (Costar, #3590, Cambridge, MA) were typically coated with individual polypeptides as antigens by adding 100 microliters (ul) of BBS [10 millimoler (mM) sodium borate (pH 8.3), 150 mM NaCl] containing polypeptide at a concentration of 10 micrograms per milliliter (ug/ml). Contact between the wells and antigen-containing solution was maintained for a predetermined time, typically 15 minutes, and at 20 degrees C., to form an antigen-coated solid phase. The solid and liquid phases were separated and the wells were washed three times with BBS.
(§2) Non-specific binding sites were blocked by admixing 200 microliters of 1% bovine serum albumin (BSA) in each well to form another solid/liquid phase admixture, and maintaining that solid/liquid phase admixture for 30 minutes, at 20 degrees C. The phases were separated and excess, unbound BSA was removed by washing three times with BBS.
(§3) Rabbit and human sera (body sample aliquots) were assayed for anti-polypeptide activity by adding 100 microliters of a serum diluted 1:20 in BBS per well to form a solid/liquid phase composition. Contact between the diluted sera and the antigen-coated solid phase was maintained for a predetermined time such as 1 hour, and at 20 degrees C., for an immunoreactant to form. The solid and liquid phases were separated, and the solid phase; i.e., antigen-coated, immunoreactant-containing wells, was then washed three times with BBS.
(§4) The antibodies in human sera that immunoreacted with an adsored polypeptide were detected using an indicating means comprising alkaline phosphatase-conjugated goat anti-human Ig antibody (Tago, Burlington, Calif.). The antibodies in rabbit sera that immunoreacted with an adsorbed polypeptide were detected using an indicating means comprising alkaline phosphatase-conjugated goat anti-rabbit Ig antibody (Kirkegard & Perry Laboratories, Inc., Gaithersburg, MD). In either instance, 100 microliters of the indicating antibody diluted 1:300 in BBS were added per well to form a further solid/liquid phase composition. This solid-liquid phase composition was maintained for a predetermined time, one hour, for the formation of a reaction product between the human antibodies bound to the solid phase and the indicating means, and at 20 degrees C. The phases were separated, and the solid phase was washed 3 times with BBS.
(§5) Alkaline phosphatase-conjugated antibody bound to polypeptide specific antibody was detected by spectrophotometrically measuring the enzymatic hydrolysis of p-nitrophenyl phosphate to p-nitrophenol. Briefly, 100 microliters of p-nitrophenyl phosphate [1 milligram per milliliter in 2 mM MgCl 2, (pH 9.8), 50 mM sodium carbonate] were added to each well. The enzymatic reaction was allowed to proceed 1 hour and then the optical density at 405 nm was determined in a [sequence] spectrophotometer available from Flow Laboratories, Inglewood, Calif.

[2] = tested on: anti-EBNA antibodies (IgM, IgG); conditions: 405 nanometer
From the text: To differentiate the class of immunoglobulin predominantly responsible for an individual's immune response at a given time during the course of infectious mononucleosis, secondary (indicating) antibodies specific for human IgG or IgM were used in the ELISA as described in the Methods and Materials section (III).
as §1, §2, §3, §4, §5

[3] = tested on: anti-EBNA antibodies (IgG, IgM, IgA)
Method: Additional assays utilized in these studies wherein IgG to IgM ratios were determined to assess the state of EBV-induced disease were carried out as described in Smith et al., J. Infect. Dis., 154:885-889 (1986) and Geltosky et al., J. Clin Lab Analysis, 1:153-162 (1987).
The solution was thereafter discarded and the plates were blocked with 300 ul of 10 percent normal goat serum in phosphate-buffered saline (PBS) at pH 7.3. After 90 minutes of maintenance (incubation) at 37 degrees C., the wells were emptied and dried for 60 minutes at 37 degrees C.
At this time, 200 ul of 10 percent goat serum in PBS were added to the wells. A volume of 10 ul of patient specimen serum was admixed to each goat serum-containing well to form a solid/liquid phase admixture. That admixture was maintained for a time period of one hour at room temperature to permit binding of any antibodies present to the solid support and form a solid phase-bound immunoreactant containing those antibodies.
After washing five times with 350 ul of 0.05% Tween-20 [polyoxyethylene (20) sorbitan monolaurate] in PBS to effect separation of the solid and liquid phases, a solution of 200 ul of horseradish peroxidase-(HRPO-) conjugated mouse monoclonal antibody to human IgG or IgM (Ortho Diagnostic Systems, Raritan, N.J.) was admixed to each well to form a second solid/liquid phase admixture. This second solid/liquid admixture was maintained for another one hour time period to permit the enzyme-linked antibodies to bind to any solid phase-bound antibodies formed in the first solid/liquid phase admixture.
After separation of the solid and liquid phases, and washing of the solid phase five times using the Tween-20/PBS solution, above, color was developed by admixture of o-phenylenediamine (OPD; 2 mg of a citrate-buffered tablet dissolved in 3 ml of water; Pitman-Moore, Washington Crossing, N.J.) and hydrogen peroxide. The resulting solution was maintained for 30 minutes at room temperature. The reaction was stopped by admixture of 50 ul of 2N HCl, and the absorbance was determined at 490 nanometers (nm).
positive control ratio =reference absorbance value/mean absorbance of positive control.
The positive control was assigned a reference absorbance value (O.D.) of 1.0. […] The absorbance value for the controls and for each test specimen were multiplied by the positive control ratio to achieve a standardized ELISA value. Cutoff values (mean OD+SD) have been previously described [Geltosky et al. J. Clin. Lab. Analysis, 1:153-162 (1987)]. […] Absorbance values less than 0.7 were considered to represent an acute infection due to EBV [Smith et al., J Infect Dis., 154:885-889 (1986)].

[4] = Patient 15, 1 Month after infection
[5] = Patient 15, 1 Week after infection
[6] = Patient 15, 3 Months after infection
[7] = Patient 15, 12 Months after infection
[8] = Patient 15, 21 Months after infection
[9] = Patient three, 1 Month after infection
[10] = Patient three, 1 Week after infection
[11] = Patient three, 3 Months after infection
[12] = Patient three, 21 Months after infection
[13] = acute IM Patient 1, 1 days post onset
[14] = acute IM Patient 1, 29 days post onset
[15] = acute IM Patient 1, 95 days post onset
[16] = acute IM Patient 1, 184 days post onset
[17] = acute IM Patient 1, 373 days post onset
[18] = acute IM Patient 2, 17 days post onset
[19] = acute IM Patient 2, 28 days post onset
[20] = acute IM Patient 2, 68 days post onset
[21] = acute IM Patient 2, 194 days post onset
[22] = acute IM Patient 2, 404 days post onset
[23] = acute IM Patient 8, 8 days post onset
[24] = acute IM Patient 8, 38 days post onset
[25] = acute IM Patient 8, 109 days post onset
[26] = acute IM Patient 8, 404 days post onset
[27] = acute IM Patient 11, 2 days post onset
[28] = acute IM Patient 11, 23 days post onset
[29] = acute IM Patient 11, 372 days post onset
[30] = acute IM Patient 11, 1,519 days post onset

In the case of `C[C@H](N)C(=O)NCC(=O)N[C@@H](C)C(=O)NCC(=O)NCC(=O)NCC(=O)N[C@@H](C)C(=O)NCC(=O)NCC(=O)N[C@@H](C)C(=O)NCC(=O)N[C@@H](C)C(=O)NCC(=O)NCC(=O)NCC(=O)N[C@@H](C)C(=O)NCC(=O)NCC(=O)N[C@@H](C)C(=O)NCC(=O)O` [Polypeptide P62, H--Ala--Gly--Ala--Gly--Gly--Gly--Ala--Gly--Gly--Ala--Gly--Ala--Gly--Gly--Gly--Ala--Gly--Gly--Ala--Gly--OH] (H-AGAGGGAGGAGAGGGAGGAG-OH), the “Immunoreactivity with sera from patients with acute EBV infection” value [1] is given as “most immunoreactive”, the “Inhibition of IgG antibodies to EBNA-1” value [1] is given as “can also be inhibited” and the “Reactivity of sera of EBV non-immune donors to polypeptide” value (anti-EBNA antibodies; 27 EBV non-immune (VCA-) donors) is given as “None of the sera displayed significant reactivity”. The “Number of anti-EBNA positive sera positive against (bound to) polypeptide” value (anti-EBNA antibodies; 91 ACIF anti-EBNA positive sera, 1:20 dilution) was 91, the “Number of EBNA positive sera that immunoreacted with polypeptide” value (anti-EBNA antibodies; 91 EBNA positive sera, dilution 1:320) was 83 and the “Titer of PSS patients versus normals” value (anti-EBNA antibodies; Progressive Systemic Schlerosis patients) was “relatively higher average titer”. For the same molecule, the “Reaction of VCA+ sera with polypeptide” value (anti-EBNA antibodies; clinically normal VCA+ individuals, two dilutions) was “all of the VCA^+ individuals were positive”, the “Reaction of VCA- sera with polypeptide” value (anti-EBNA antibodies; panel of 19 VCA- sera) was “None of the VCA^- sera were found to react positively” and the “OD405 × 10^3 obtained with Patient Antibodies to peptide” value (“OD405 × 10^3 obtained” for short) (anti-EBNA antibodies; MV post-mononucleosis) was 631 OD405 × 10^3. For the same molecule, the “OD405 × 10^3 obtained” value (anti-EBNA antibodies; MV pre-mononucleosis) was 77 OD405 × 10^3, the “OD405 × 10^3 obtained” value (anti-EBNA antibodies; SB post-mononucleosis) was 514 OD405 × 10^3 and the “OD405 × 10^3 obtained” value (anti-EBNA antibodies; SB pre-mononucleosis) was 13 OD405 × 10^3. For the same molecule, the “OD405 × 10^3 obtained” value (anti-EBNA antibodies; VCA+ Normal 1) was 958 OD405 × 10^3, the “OD405 × 10^3 obtained” value (anti-EBNA antibodies; VCA+ Normal 2) was 819 OD405 × 10^3 and the IgG antipeptide activity [2, 4] was 118 Optical density. For the same molecule, the IgM antipeptide activity [2, 4] was 225 Optical density, the IgG antipeptide activity [2, 5] was 113 Optical density and the IgM antipeptide activity [2, 5] was 152 Optical density. For the same molecule, the IgG antipeptide activity [2, 6] was 118 Optical density, the IgM antipeptide activity [2, 6] was 208 Optical density and the IgG antipeptide activity [2, 7] was 375 Optical density. The IgM antipeptide activity [2, 7] was 249 Optical density, the IgG antipeptide activity [2, 8] was 994 Optical density and the IgM antipeptide activity [2, 8] was 185 Optical density. The IgG antipeptide activity [2, 9] was 37 Optical density, the IgM antipeptide activity [2, 9] was 87 Optical density and the IgG antipeptide activity [2, 10] was 80 Optical density. For the same molecule, the IgM antipeptide activity [2, 10] was 245 Optical density, the IgG antipeptide activity [2, 11] was 60 Optical density and the IgM antipeptide activity [2, 11] was 136 Optical density. The IgG antipeptide activity [2, 12] was 600 Optical density, the IgM antipeptide activity [2, 12] was 145 Optical density and the IgG antipeptide activity ([2]; Patient three, Pre Infection) was 74 Optical density. For the same molecule, the IgM antipeptide activity ([2]; Patient three, Pre Infection) was 103 Optical density, the “IgM anti-peptide P62 antibodies during acute phase of CMV disease” value ([3]; 10 patients with CMV-IM) was “All 10 patients showed a pronounced increase” and the “Sera positive for NPC in IgA anti-P62 assay” value ([3]; 13 sera from NPC patients) was 10 of 13. The IgA level ([3]; Heterophil-Positive Sera marked with footnote 2 (samples 2 and 6)) was > 0.300 OD 490, the “IgG OD 490” value [3, 13] was 0.011 OD 490 and the “IgM OD 490” value [3, 13] was 0.189 OD 490. For the same molecule, the “Ratio IgG/IgM” value [3, 13] was 0.058, the “IgG OD 490” value [3, 14] was 0.023 OD 490 and the “IgM OD 490” value [3, 14] was 0.527 OD 490. The “Ratio IgG/IgM” value [3, 14] was 0.043, the “IgG OD 490” value [3, 15] was 0.162 OD 490 and the “IgM OD 490” value [3, 15] was 0.329 OD 490. For the same molecule, the “Ratio IgG/IgM” value [3, 15] was 0.492, the “IgG OD 490” value [3, 16] was 0.552 OD 490 and the “IgM OD 490” value [3, 16] was 0.245 OD 490. For the same molecule, the “Ratio IgG/IgM” value [3, 16] was 2.253, the “IgG OD 490” value [3, 17] was 0.858 OD 490 and the “IgM OD 490” value [3, 17] was 0.152 OD 490. The “Ratio IgG/IgM” value [3, 17] was 5.644, the “IgG OD 490” value [3, 18] was 0.125 OD 490 and the “IgM OD 490” value [3, 18] was 0.682 OD 490. For the same molecule, the “Ratio IgG/IgM” value [3, 18] was 0.183, the “IgG OD 490” value [3, 19] was 0.167 OD 490 and the “IgM OD 490” value [3, 19] was 0.674 OD 490. For the same molecule, the “Ratio IgG/IgM” value [3, 19] was 0.247, the “IgG OD 490” value [3, 20] was 0.112 OD 490 and the “IgM OD 490” value [3, 20] was 0.459 OD 490. For the same molecule, the “Ratio IgG/IgM” value [3, 20] was 0.244, the “IgG OD 490” value [3, 21] was 0.233 OD 490 and the “IgM OD 490” value [3, 21] was 0.596 OD 490. The “Ratio IgG/IgM” value [3, 21] was 0.390, the “IgG OD 490” value [3, 22] was 0.674 OD 490 and the “IgM OD 490” value [3, 22] was 0.665 OD 490. The “Ratio IgG/IgM” value [3, 22] was 1.013, the “IgG OD 490” value [3, 23] was 0.319 OD 490 and the “IgM OD 490” value [3, 23] was 1.046 OD 490. For the same molecule, the “Ratio IgG/IgM” value [3, 23] was 0.305, the “IgG OD 490” value [3, 24] was 0.165 OD 490 and the “IgM OD 490” value [3, 24] was 0.696 OD 490. For the same molecule, the “Ratio IgG/IgM” value [3, 24] was 0.237, the “IgG OD 490” value [3, 25] was 0.141 OD 490 and the “IgM OD 490” value [3, 25] was 0.603 OD 490. The “Ratio IgG/IgM” value [3, 25] was 0.234, the “IgG OD 490” value [3, 26] was 1.304 OD 490 and the “IgM OD 490” value [3, 26] was 0.562 OD 490. For the same molecule, the “Ratio IgG/IgM” value [3, 26] was 2.320, the “IgG OD 490” value [3, 27] was 0.005 OD 490 and the “IgM OD 490” value [3, 27] was 0.055 OD 490. For the same molecule, the “Ratio IgG/IgM” value [3, 27] was 0.091, the “IgG OD 490” value [3, 28] was 0.016 OD 490 and the “IgM OD 490” value [3, 28] was 0.702 OD 490. The “Ratio IgG/IgM” value [3, 28] was 0.023, the “IgG OD 490” value [3, 29] was 0.878 OD 490 and the “IgM OD 490” value [3, 29] was 0.643 OD 490. The “Ratio IgG/IgM” value [3, 29] was 1.365, the “IgG OD 490” value [3, 30] was 1.079 OD 490 and the “IgM OD 490” value [3, 30] was 0.199 OD 490. The “Ratio IgG/IgM” value [3, 30] was 5.422, the IgG/IgM ratio ([3]; patient five (EBV-IM), May 1985 specimen, late convalescent phase) was “exceeded 0.7” and the IgG/IgM ratio ([3]; patient one (CMV-IM), during the acute illness) was 0.661. The IgG/IgM ratio ([3]; patient one (CMV-IM), pre-illness samples) was ~2 and the “Patients scored positive in the EBNA P62 ELISA by the ratio analysis” value ([3]; ten patients with acute CMV-IM infection) was “eight of ten”.
